{
  "source": "patent US20080312311A1",
  "about": "“Crystalline forms of 3-(2R-tetrahydrofuryl-methyl)-2-thioxanthine” (ASTRAZENECA AB, priority 2007, published 2008)",
  "key": {"[1]": {"assay": "relative stability of crystal forms versus temperature", "assay_type": "physicochemical"}, "[2]": {"assay": "polymorph transformation on stirring in solution", "assay_type": "physicochemical"}},
  "data": [
    {"smiles": "O=c1[nH]c(=S)n(C[C@H]2CCCO2)c2nc[nH]c12", "note": "[3-(2R-tetrahydrofuryl-methyl)-2-thioxanthine]", "values": [
      {"measurement": "relative stability of the crystalline form", "setting": "[1]; at ambient temperature, such as room temperature, Form A versus Form B", "result": "more stable"},
      {"measurement": "relative stability of the crystalline form", "setting": "[1]; at temperatures over +65° C., Form B versus Form A", "result": "more stable"},
      {"measurement": "polymorph transformation on stirring in solution", "setting": "[2]; stirring in a solution about or above 60° C.", "result": "transforms it to polymorph B"},
      {"measurement": "polymorph transformation on stirring in solution", "setting": "[2]; stirring in solutions about or below 60° C.", "result": "transforms it to polymorph A"}
    ]}
  ]
}
